Results from patent US6969583B2, “Method for detecting variant HBV” (Melbourne Health, priority 2000, dated 2005).
Several values for one entry are separate records, joined by “and”; a condition that tells them apart may be missing. Equal entries are not always repeated. Where two headings read alike, the source gives them in different places.

Experiments:
Assay type in all cases: cell-based, Hepatitis B virus
[1] = tested on: wild-type HBV baculovirus; experiment: Antiviral testing with wild-type HBV baculovirus in HepG2 cells (Example 15, Southern blot densitometry)
Method: (§1) HepG2 cells were seeded at approximately 20-40% confluency and then were grown for 16-24 hours before infection. On the day of infection, triplicate plates of cells were trypsinized, and viable cell number was determined with a hemocytometer using Trypan blue exclusion. Average cell counts were calculated and used to determine the volume of high-titer viral stock necessary to infect cells at the indicated moi. HepG2 cells were washed one time with serum-free MEM to remove traces of serum. Baculovirus was diluted into MEM without serum to achieve the appropriate moi using volumes of 1.0, 0.5, and 0.25 ml to infect 100-mm, 60 mm, and 35-mm dishes, respectively. Baculovirus was adsorbed to HepG2 cells for one hour at 37° C. with gentle rocking every 15 minutes to ensure that the inoculum was evenly distributed. The inoculum was then aspirated and HepG2 cells were washed two times with phosphate-buffered saline and refed MEM-FBS with or without various concentrations of agents.
(§2) HBV core particles were isolated from the cytoplasmic fraction of HepG2 cells lysed in 0.5% w/v NP-40. Cytoplasmic extracts were adjusted to 10 mmol/l McC12 and unprotected DNA was removed by an incubation to […] for 1.5 hours at 37° C. Following sequential phenol and chloroform extractions, nucleic acids were recovered by ethanol precipitation. Nucleic acids were resuspended in 50 μl/l TE (10 mmol/l Tris, 1 mmol/l ethylenedianinetetraacetic acid), normalized by OD260, and digested with 100 μg/ml RNase (Boehringer Mannheim, Indianapolis, Ind.) for one hour at 37° C. before analysis by electrophoresis and Southern blotting. A BioRad GS-670 imaging densitometer and the Molecular Analyst software (BioRad, Hecules Calif.) was used to analyze suitable exposures of Southern blots. Densitometry data was fitted to logistic dose response curves using the TableCurve2D software package from Jandel Scientific. Logistic dose response equations were used to calculate IC50 and IC90 values and co-efficients of variation.
(§3) 3TC and PCV were a gift from Klaus Esser, SmithKline Beecham, Collegeville, Pa. PMEA was obtained from Gilead (Foster City, Calif.). 3TC was resuspended in sterile water, aliquoted, and frozen at −20° C. to avoid repeated freezing and thawing of the drug. PMEA was resuspended in sterile water after the pH was adjusted to 7.0 with NaOH. PCV was resuspended in dimethyl sulphoxide. Medium containing 3TC was prepared daily as needed using fresh aliquots of 3TC. In experiments in which 3TC treatment was initiated after viral infection, HepG2 cells were exposed to the indicated concentration of 3TC immediately after infection with HBV baculovirus. In experiments utilizing pretreatment with 3TC, cells were fed medium containing 3TC 16 hours prior to HBV baculovirus infection, HBV baculovirus infection was also carried out in medium containing 3TC, and cells were refed fresh medium containing 3TC immediately after completion of the infection and washing procedures. Treatment with PMEA and PCV were conducted in a similar manner.
The dose effect of 3TC and PMEA, on wild-type HBV is shown graphically in FIG. 6 (A, B,) and a Southern Blot of intracellular HBV replicative intermediates and extracellular virus produced by HepG2 cells transduced with wild-type HBV-baculovirus in the presence of increasing concentrations of PCV is shown in FIG. 6C and the IC50 for each antiviral agent is shown in Table 2.

[2] = tested on: L526M/M550V HBV baculovirus; experiment: Antiviral testing with L526M/M550V HBV baculovirus in HepG2 cells (Example 15)
Method: as §1, §2, §3

[3] = tested on: wild-type (WT) recombinant HBV-baculovirus; experiment: Antiviral testing, wild-type (1.3x genomic length) recombinant HBV-baculovirus in HepG2 cells (Example 17)
Method: as §1, §2
(§4) Conditioned medium was collected from HepG2 cells and subjected to centrifugation at 6,000 g for five minutes to remove cellular debris. HBV particles were precipitated with 10% w/v PEG 8000 and were concentrated by centrifugation at 12,000 ×g. Viral pellets were resuspended us 1 ml of MEM-FBS and divided into two aliquots. One set of aliquots was treated with 750 μg/ml Pronase for one hour and then with […] DNase 1 for one hour. Both sets of aliquots were then digested with Proteinase K, and extracted with phenol and chloroform. DNA was precipitated with 0.1 volume of 3 mol/l sodium acetate and 1 volume of isopropanol. Ten micrograms of transfer RNA was added as a carrier during precipitation. Pellets were resuspended in 25 μl of TE and digested with 0.5 mg/ml RNase for one hour. DNA was then analyzed by electrophoresis and Southern blotting.
as §3

[4] = tested on: precore (G1896A) recombinant HBV-baculovirus; experiment: Antiviral testing of the precore mutant (G1896A) HBV baculovirus in HepG2 cells (Example 17)
Method: as §1, §2, §4, §3

M550I HBV baculovirus = experiment: Antiviral testing with M550I HBV baculovirus in HepG2 cells (Example 15)
Method: as §1, §2, §3

L526M HBV baculovirus = experiment: Antiviral testing with L526M HBV baculovirus in HepG2 cells (Example 15)
Method: as §1, §2, §3

SMILES: Nc1ccn([C@@H]2CS[C@H](CO)O2)c(=O)n1 [Lamivudine, (−)-b-L-2′,3′-dideoxy-3′-thiacytidine]
- inhibition at 1 µM ([1]; Hepatitis B virus, HepG2, wt HBV, ds HBV DNA band density vs untreated controls, estimated from fitted curve, negative = stimulation of replication): 99.6%
- IC50 ([1]; Hepatitis B virus, wt HBV, ds HBV DNA bands, HepG2 cells): 0.009 µM
- Resistance Factor ([1]; {}): 1
- inhibition at 1 µM ([2]; Hepatitis B virus, HepG2, dual (L526M/M550V) HBV, ds HBV DNA band density vs untreated controls, estimated from fitted curve, negative = stimulation): -15%
- IC50 ([2]; Hepatitis B virus, dual (L526M/M550V) HBV, ds HBV DNA bands, HepG2 cells): 86.2 µM
- Resistance Factor ([2]; {}): 9578
- IC50 ([3]; Hepatitis B virus, HepG2, WT, intracellular single-stranded HBV DNA, individual experiments behind the average, read-out: IC50, single experiments, IC SS): 0.067 µM
- IC50 ([3]; Hepatitis B virus, HepG2, read-out: IC50 (μM), EC RC, WT, extracellular relaxed circular HBV DNA, averages where footnoted): 0.018 µM
- IC50 ([3]; Hepatitis B virus, HepG2, read-out: IC50 (μM), IC SS, WT, intracellular single-stranded HBV DNA, averages where footnoted): 0.0697 µM
- IC50 ([3]; WT, extracellular relaxed circular HBV DNA, individual experiments behind the average, read-out: IC50, single experiments, EC RC): 0.022 µM and 0.0293 µM and 0.0095 µM
- IC50 ([3]; WT, intracellular single-stranded HBV DNA, individual experiments behind the average, read-out: IC50, single experiments, IC SS): 0.085 µM and 0.0572 µM
- IC50 ([4]; Hepatitis B virus, HepG2, Precore (G1896A), extracellular relaxed circular HBV DNA, individual experiments behind the average, read-out: IC50, single experiments, EC RC): 0.012 µM
- IC50 ([4]; Hepatitis B virus, HepG2, read-out: IC50 (μM), EC RC, Precore (G1896A), extracellular relaxed circular HBV DNA, averages where footnoted): 0.011 µM
- IC50 ([4]; Hepatitis B virus, HepG2, read-out: IC50 (μM), IC SS, Precore (G1896A), intracellular single-stranded HBV DNA, averages where footnoted): 0.0207 µM
- IC50 ([4]; Precore (G1896A), extracellular relaxed circular HBV DNA, individual experiments behind the average, read-out: IC50, single experiments, EC RC): 0.01 µM
- IC50 ([4]; Precore (G1896A), intracellular single-stranded HBV DNA, individual experiments behind the average, read-out: IC50, single experiments, IC SS): 14 nM (2×) and 32 nM
- inhibition at 1 µM (M550I HBV baculovirus; Hepatitis B virus, HepG2, 550 (M550I) HBV, ds HBV DNA band density vs untreated controls, estimated from fitted curve, negative = stimulation): 26.7%
- IC50 (M550I HBV baculovirus; Hepatitis B virus, 550 (M550I) HBV, ds HBV DNA bands, HepG2 cells, read-out: IC50): 3.8 µM
- Resistance Factor (M550I HBV baculovirus; {}): 422
- inhibition at 1 µM (L526M HBV baculovirus; Hepatitis B virus, HepG2, 526 (L526M) HBV, ds HBV DNA band density vs untreated controls, estimated from fitted curve, negative = stimulation, read-out: Inhibition at 1 μM): 85.8%
- IC50 (L526M HBV baculovirus; Hepatitis B virus, 526 (L526M) HBV, ds HBV DNA bands, HepG2 cells, read-out: IC50): 0.03 µM
- shift in the IC50 compared to the wild-type (L526M HBV baculovirus; L526M vs wild-type, FIG. 7A): > 0.5 log
- Resistance Factor (L526M HBV baculovirus; {}): 3
